Data published in patent publication US8999970B2, “Administration of an anti-obesity compound to individuals with renal impairment” (Arena Pharmaceuticals, Inc., priority 2010, dated 2015).
Entries after “also recorded” stand apart in the source; their conditions may differ.

Test: Dynamic moisture (vapor) sorption of Form III
Assay type: physicochemical

## C[C@H]1CNCCc2ccc(Cl)cc21.C[C@H]1CNCCc2ccc(Cl)cc21.Cl.Cl.O [(R)-8-chloro-1-methyl-2,3,4,5-tetrahydro-1H-3-benzazepine hydrochloride hemihydrate, Form III]
  Hygroscopicity (DMS / DVS): substantially non-hygroscopic; also recorded: FIG. 9: non-hygroscopic
90% RH
  Water adsorbed: less than 0.5 wt %
